In brackets after ≈: the same amount, converted by molar mass. Numbered stars: 1 amine (or outer) side, 2 acyl side, 3 side chain; on linkers, the order of the positions; unused ones are H or OH. Bridge positions count the residues as written; N and C are the ends. Square brackets hold non-standard residues; d marks the D form. Peptide text beside a SMILES is read from it. * marks the point of attachment. hTyr(3S-OH,4S-OH,3'-OSO3H) = N[C@H](C(=O)O)[C@H](O)[C@@H](O)c1ccc(O)c(OS(=O)(=O)O)c1; pTerphenylCO(4''-OnC5H11) = CCCCCOc1ccc(-c2ccc(-c3ccc(C(=O)*)cc3)cc2)cc1; Orn(4R-OH,5R-OH) = O=C([C@H](C[C@@H](O)[C@@H](O)N[*:3])N[*:1])[*:2]; hTyr(3S-OH,4S-OH) = N[C@H](C(=O)O)[C@H](O)[C@@H](O)c1ccc(O)cc1; Pro(3S-OH,4S-Me) = C[C@H]1CN[C@H](C(=O)O)[C@H]1O; X1 = CCCCCOc1ccc(-c2cc(-c3ccc(C(=O)*)cc3)no2)cc1; Gln(3R-OH) = NC(=O)C[C@@H](O)[C@H](N)C(=O)O; Hyp = O=C(O)[C@@H]1C[C@@H](O)CN1
Tests used:
C. glabrata isolates = experiment: Susceptibility profiles of C. glabrata clinical isolates; type: cell-based
From the text: 168 C. glabrata isolates are collected from blood or other sterile sites in our repository. 11 clinical isolates are selected that display various susceptibility profiles against anidulafungin, caspofungin, and micafungin, and/or harbor mutant or wild-type FKS genes (Table 1). Additionally, 29 isolates are picked that are susceptible to all three echinocandins and harbor wild-type FKS genes. These 40 clinical isolates undergo CD101 susceptibility testing according to the CLSI broth microdilution reference methods. Stock solutions are prepared in DMSO. […] MICs are determined visually after 24-h of incubation. C. krusei ATCC 6258 and C. parapsilosis ATCC 22019 are included for quality controls.

[1] = MALDI-MSI drug distribution in infected liver, mouse model of intra-abdominal candidiasis; type: in vivo; conditions: single dose 5 mg/kg
Procedure: (§1) A mouse model of IAC was used for this study. Female six to eight week old CD1 mice (Charles River Laboratories) weighing 18-22 g were infected intraperitoneally (IP) with 1×10^7 CFU of C. albicans SC5314 mixed with sterile stool matrix as previously described. […] Mice were sacrificed just before antifungal treatment (n=1), and at 1, 3, 6, 24, and 48 hours post-dose (three mice per group per time point). Livers and kidneys were explored for abscesses >1 mm in diameter, dissected, placed on a cryohistology tray, and snap-frozen in liquid nitrogen and stored at −80° C. for tissue sectioning for MALDI imaging.
(§2) In a further experiment, a low dose of CD101 at 5 mg/kg was administered and micafungin was given at the same dose. Liver and kidney samples were collected at 6 hours and 24 hours post-dose for both MALDI imaging and absolute drug quantification.
(§3) In another separate experiment that aimed at comparing therapeutic level of single dose CD101 and multiple doses of micafungin, a single dose of CD101 at 20 mg/kg was given at day three post-inoculation, and once daily treatment of micafungin at 5 mg/kg starting from day three post-inoculation and a total of three doses of micafungin was administered. Livers and kidneys were collected at 48 hours and 72 hours post first dose of each drug.
Tissues were sectioned at 12 μm thickness using a Leica CM1850 cryostat (Buffalo Grove, Ill.) and mounted onto stainless steel slides (for MALDI-MSI analysis) or frosted glass microscope slides (for H&E staining). Tissue sections were stored at −80° C. until analysis. Prior to MALDI-MSI analysis, tissue sections were thawed and applied with ionization matrix. For CD101, 2,5-dihydroxybenzoic acid (DHB) (20 mg/ml in 50% methanol) containing 267 fmol/μl CD101-D9 (Cidara Therapeutics, Inc) was applied to the surface using a HTX TM sprayer (Chapel Hill, N.C.) operating with 50 μL/min flow rate, 60° C. nozzle temperature and 5 p.s.i. Twenty-five passes over the tissue were performed. For micafungin, 1,5-diaminonaphthalene (1,5-DAN) matrix (5 mg/ml in 50% acetone) containing 5 nmol/μl ^13C6-micafungin (Alsachim, France) was coated onto tissue surface by the TM-sprayer at flow rate of 60 μl/min, 50° C. nozzle temperature and 5 p.s.i. […]
MALDI-MSI analysis was performed using a MALDI LTQ Orbitrap XL mass spectrometer (Thermo Fisher Scientific, Bremen, Germany) with a resolution of 60,000 at m/z 400, full width at half maximum. […] Standards of CD101 and micafungin were analyzed both direct from the stainless steel target plate and spiked into drug-naïve liver tissue to optimize instrument parameters. Limit of detection (LOD) for MALDI-MSI analysis of micafungin and CD101 was 500 ng/g and 1 μg/g of liver or kidney tissue respectively, calculated as described. […]

[2] = Laser-capture microdissection and LC/MS-MS drug quantification in liver lesions and surrounding tissue, mouse IAC model; type: in vivo; conditions: for concentration at 24 h / concentration at 6 h: female, CD1, mouse, in vivo, 5 mg/kg; for concentration at 6 h: 6 hours post-dose
Procedure: as §1, §2, §3
Laser-capture microdissection. Necrotic lesion and surrounding tissue areas totaling two to […] were dissected from between three and six serial liver or kidney biopsy tissue sections using a Leica LMD6500 system (Buffalo Grove, Ill.). Lesion areas were identified optically from the brightfield image scan and by comparison to the adjacently-sectioned H&E reference tissue. Pooled dissected lesion tissues were collected into 0.25 ml standard PCR tubes and immediately transferred to the −80° C. freezer for storage.
Prior to analysis, the tubes were thawed at room temperature for 30 minutes. 50 μl of extraction solution (ACN/MeOH (1/1) with 100 ng/ml CD101-D9 and 100 ng/ml ^13C6-micafungin) was added to each tube, which were then sonicated for five min and centrifuged at 10000 RPM for five min at room temperature. 40 μl of supernatant was transferred for LC/MS-MS analysis and diluted with an additional 40 μl of MilliQ water.
Neat 1 mg/ml DMSO stocks for all compounds were serial diluted in 50/50 acetonitrile water to create standard curves and quality control spiking solutions. 3 μl of neat spiking solutions were added to 2 μl of lesion homogenate and extraction was performed by adding 50 μl of extraction solution (ACN/MeOH (1/1) with 100 ng/ml CD101-D9 and 100 ng/ml ^13C6-micafungin). Extracts were vortexed for five minutes and centrifuged at 10000 RPM for five min. A 40 μl of supernatant was transferred for LC/MS-MS analysis and diluted with an additional 40 μl of MilliQ water. Previously optimized LC/MS-MS parameters were used for analysis (see LC/MS-MS section).
LC-MS analysis was performed on a Q Exactive high resolution mass spectrometer (Thermo Fisher Scientific, Waltham, Mass.) coupled to a Thermo Scientific Dionex UltiMate 3000 binary system. Chromatography was performed with a Kinetex C18 column (2.1×50 mm; particle size 1.7 μm, Phenomenex, Torrance, Calif.) using a reverse phase gradient elution, ACN:H2O (60:40) and 10 mM ammonium acetate for mobile phase A and IPA:ACN:MeOH (80:10:10) and 10 mM ammonium acetate for mobile phase B. A flow rate of 300 μl/min was used, with a gradient consisting of 20% B held for 0.5 min, followed by linear increase to 95% in 3.5 min, held for 2.2 min and return to the initial 20% B in 0.3 min. The column was equilibrated for 1.5 min before the next injection, and the temperature of column and sample tray were held at 50 and 4° C., respectively. The column retention time for CD101 and micafungin was 3.32 min and 3.2 min respectively.
Key MS parameters were as follow: the spray voltage, 3.5 kV; capillary temperature, 320° C.; HESI probe temperature, 400° C.; S-lens RF level, 50. […]

[3] = Serum drug levels after single dose in mice; type: in vivo; conditions: mouse, single dose 5 mg/kg, read-out: serum drug level
C. albicans = experiment: Minimum inhibitory concentration (MIC), IAC study strain; type: cell-based; conditions: Candida albicans
Procedure: As used herein, the term “minimum inhibitory concentration” or “MIC” refers to the concentration of an antifungal agent at which 50% to 100% growth inhibition of a fungus is achieved relative to a positive growth control. The method of establishing MIC will vary depending on the specific compound tested. For example, for echinocandins (e.g., CD101), MIC endpoints are determined after 24 hours incubation and correspond with the lowest drug concentration to produce a prominent decrease in turbidity (e.g., an approximately 50% reduction in growth relative to the drug-free growth control). For additional methods of determining the MIC of antifungal agents, see CLSI—Reference method for broth dilution antifungal susceptibility testing of yeasts; Approved-standard—Third Edition. CLSI document M27-A3. Wayne, Pa.: Clinical and Laboratory Standards Institute, 2008.

C. glabrata BG2 = experiment: MIC against C. glabrata BG2; type: cell-based; conditions: Nakaseomyces glabratus; C. glabrata BG2, wild-type FKS genes
[4] = tested on: wildtype strains of C. albicans; conditions: cited from earlier work
[5] = tested on: wildtype strains of C. glabrata; conditions: cited from earlier work

SMILES	susceptibility profile, value (C. glabrata isolates; Isolate 1, FKS R653I)	susceptibility profile, value (C. glabrata isolates; Isolate 2, FKS Wild-type)	susceptibility profile, value (C. glabrata isolates; Isolate 3, FKS F659L)	susceptibility profile, value (C. glabrata isolates; Isolate 4, FKS F659S)	susceptibility profile, value (C. glabrata isolates; Isolate 5, FKS R636S)	susceptibility profile, value (C. glabrata isolates; Isolate 6, FKS F659del)	susceptibility profile, value (C. glabrata isolates; Isolate 7, FKS S663P)	susceptibility profile, value (C. glabrata isolates; Isolate 8, FKS S663P)	susceptibility profile, value (C. glabrata isolates; Isolate 9, FKS D632Y)	susceptibility profile, value (C. glabrata isolates; Isolate 10, FKS D632Y)	susceptibility profile, value (C. glabrata isolates; Isolate 11, FKS F659del)	further results
CCCCCOc1ccc(-c2ccc(-c3ccc(C(=O)N[C@H]4C[C@@H](O)[C@@H](O)NC(=O)[C@@H]5[C@@H](O)[C@@H](C)CN5C(=O)[C@H]([C@@H](C)O)NC(=O)[C@H]([C@H](O)[C@@H](O)c5ccc(O)cc5)NC(=O)[C@@H]5C[C@@H](O)CN5C(=O)[C@H]([C@@H](C)O)NC4=O)cc3)cc2)cc1 [Anidulafungin, anidulafungin] ({pTerphenylCO(4''-OnC5H11)}-[Orn(4R-OH,5R-OH)]T[Hyp][hTyr(3S-OH,4S-OH)]T[Pro(3S-OH,4S-Me)]; lactam 1-C)	0.015	0.015	0.06	0.5	0.5	2	2	0.5	0.5	1	2	–
CC[C@H](C)C[C@H](C)CCCCCCCCC(=O)N[C@H]1C[C@@H](O)[C@@H](NCCN)NC(=O)[C@@H]2[C@@H](O)CCN2C(=O)[C@H]([C@H](O)CCN)NC(=O)[C@H]([C@H](O)[C@@H](O)c2ccc(O)cc2)NC(=O)[C@@H]2C[C@@H](O)CN2C(=O)[C@H]([C@@H](C)O)NC1=O [Caspofungin, caspofungin]	0.125	0.25	1	1	4	8	8	0.5	2	2	16	–
CCCCCOc1ccc(-c2cc(-c3ccc(C(=O)N[C@H]4C[C@@H](O)[C@@H](O)NC(=O)[C@@H]5[C@@H](O)[C@@H](C)CN5C(=O)[C@H]([C@H](O)CC(N)=O)NC(=O)[C@H]([C@H](O)[C@@H](O)c5ccc(O)c(OS(=O)(=O)O)c5)NC(=O)[C@@H]5C[C@@H](O)CN5C(=O)[C@H]([C@@H](C)O)NC4=O)cc3)no2)cc1 [micafungin] (X1-[Orn(4R-OH,5R-OH)]T[Hyp][hTyr(3S-OH,4S-OH,3'-OSO3H)][Gln(3R-OH)][Pro(3S-OH,4S-Me)]; lactam 1-C)	0.015	0.03	0.06	0.06	0.12	4	8	0.5	0.25	0.25	4	time of peak drug intensity in liver tissues (MALDI-MSI) [1]: 1 h; drug signal in liver at 48 hours (MALDI-MSI) ([1]; no further dosing): no drug signals were detected; drug exposure within necrotic center of lesion (MALDI-MSI) ([1]; 24 hours): no detectable drug exposure; time at which drug signal first detectable in lesions (at lesion edge, MALDI-MSI) ([1]; liver): 6 h; drug level in liver lesions ([2]; 5 mg/kg once daily, 24 hours post third dose (steady-state)): under 5 μg/ml; concentration at 24 h ([2]; 5 mg/kg once daily, 24 hours post second dose, read-out: drug level in liver lesions): 3500 ng/mL; concentration at 24 h ([2]; 5 mg/kg once daily, 24 hours post third dose (steady-state), read-out: drug level in liver lesions): 4900 ng/mL; concentration at 24 h ([2]; 5 mg/kg once daily, steady-state after three doses, read-out: drug level in surrounding non-lesion liver tissues): 500 ng/mL; concentration at 6 h ([2]; ip, single IP dose 5 mg/kg, read-out: drug concentration in liver lesions): 4900 ng/mL; concentration at 6 h ([2]; ip, single IP dose 5 mg/kg, read-out: drug concentration in uninvolved surrounding liver tissue): 6500 ng/mL; concentration at 24 h ([2]; ip, single IP dose 5 mg/kg, 24 hours post-dose, read-out: drug concentration in liver lesions): 3400 ng/mL; concentration at 24 h ([2]; ip, single IP dose 5 mg/kg, 24 hours post-dose, read-out: drug concentration in uninvolved surrounding liver tissue): 1000 ng/mL; concentration at 6 h ([3]; 6 hours): 7000 to 10000 ng/mL; concentration at 24 h ([3]; 24 hours): ~2000 ng/mL; MIC (C. albicans): 0.03 µg/mL (≈ 0.0236 µM); MIC (C. glabrata BG2): 0.06 µg/mL (≈ 0.0472 µM); mutant prevention concentration (MPC) [4]: 16 µg/mL; mutant prevention concentration (MPC) [5]: 16 µg/mL
